Reference: the CheMixHub viscosity set
Values joined by “and” are separate entries in the source; they are usually repeats but may differ in a detail not shown here. Equal entries are not always repeated. ± gives the uncertainty stated by the source.

Tests used:
[1] = xn = mol fraction of the nth substance listed

NC1CCCCC1
101 kPa
Conditions | viscosity
298.15 K | 1.753 ± 0.013 mPa·s (2×) and 1.773 ± 0.021 mPa·s and 1.753 ± 0.012 mPa·s
303.15 K | 1.656 ± 0.014 mPa·s and 1.648 ± 0.019 mPa·s
308.15 K | 1.325 ± 0.14 mPa·s and 1.325 ± 0.017 mPa·s

CCC[N+]1(C)CCCC1.N#C[N-]C#N
Conditions | viscosity [mPa·s]
313.15 K, 101 kPa | 18.6 ± 1.9

ClC=C(Cl)Cl
Conditions | viscosity
293.15 K, 101 kPa | 0.568 ± 0.011 mPa·s
293.15 K, 101.33 kPa | 0.572 ± 0.011 mPa·s
298 K, 101 kPa | 0.69 ± 0.02 mPa·s
298.15 K, 101 kPa | 0.531 ± 0.005 mPa·s
298.15 K, 101.33 kPa | 0.529 ± 0.006 mPa·s and 0.618 ± 0.008 mPa·s
303 K, 101 kPa | 0.66 ± 0.01 mPa·s
303.15 K, 101 kPa | 0.52 ± 0.011 mPa·s and 0.523 ± 0.0045 mPa·s
303.15 K, 101.3 kPa | 0.509 ± 0.009 mPa·s and 0.515 ± 0.008 mPa·s
303.15 K, 101.32 kPa | 0.523 ± 0.0072 mPa·s
303.15 K, 101.33 kPa | 0.523 ± 0.004 mPa·s and 0.515 ± 0.015 mPa·s and 0.532 ± 0.01 mPa·s
308 K, 101 kPa | 0.63 ± 0.01 mPa·s
308.15 K, 101 kPa | 0.489 ± 0.005 mPa·s
308.15 K, 101.33 kPa | 0.588 ± 0.008 mPa·s
313 K, 101 kPa | 0.6 ± 0.01 mPa·s
313.15 K, 101 kPa | 0.482 ± 0.01 mPa·s and 0.531 ± 0.0071 mPa·s
313.15 K, 101.33 kPa | 0.486 ± 0.014 mPa·s and 0.473 ± 0.0092 mPa·s
318.15 K, 101 kPa | 0.45 ± 0.005 mPa·s
318.15 K, 101.33 kPa | 0.557 ± 0.007 mPa·s
323.15 K, 101 kPa | 0.445 ± 0.009 mPa·s and 0.472 ± 0.0063 mPa·s

CCCCC(=O)[O-].CC[NH+](CC)CCO
101 kPa
Conditions | viscosity [mPa·s]
293.15 K | 62.45 ± 1.1
298.15 K | 47.75 ± 0.81
303.15 K | 37.12 ± 0.63
308.15 K | 29.31 ± 0.5
313.15 K | 23.48 ± 0.4
318.15 K | 19.07 ± 0.32
323.15 K | 15.68 ± 0.27

CCCCCCCC[P+](CC)(CC)CC.N#Cc1ccc[n-]1
100 kPa
Conditions | viscosity [mPa·s]
293.15 K | 272 ± 39
298.15 K | 189 ± 27
303.15 K | 140 ± 20
313.15 K | 82 ± 12

CC(=O)[O-].C[NH+]1CCCC1
Conditions | viscosity [mPa·s]
298.15 K, 100 kPa | 3.78 ± 0.08

CC(CCO)CC(C)(C)C (stereo not drawn)
101.33 kPa
Conditions | viscosity [mPa·s]
298.15 K | 10.97 ± 0.4
303.15 K | 10.44 ± 0.39
308.15 K | 9.608 ± 0.36

CC(C)Br
101 kPa
Conditions | viscosity [mPa·s]
298.15 K | 0.4981 ± 0.028
303.15 K | 0.4835 ± 0.028
308.15 K | 0.4708 ± 0.027
313.15 K | 0.4389 ± 0.026
318.15 K | 0.4194 ± 0.025

CC(O)CO (stereo not drawn)
viscosity
Conditions | 293.15 K | 298.15 K | 303.15 K | 308.15 K | 313 K | 313.15 K | 318.15 K | 323.15 K
100 kPa | 54.6 ± 11 mPa·s and 58.75 ± 5.9 mPa·s and 59.2 ± 0.7 mPa·s | – | 33.06 ± 0.69 mPa·s | 25.31 ± 0.53 mPa·s and 24.9 ± 0.3 mPa·s | – | 19.65 ± 2 mPa·s and 19.3 ± 0.2 mPa·s | – | 12.53 ± 0.26 mPa·s and 12.54 ± 1.3 mPa·s and 12.51 ± 0.28 mPa·s
101 kPa | – | – | 34.28 ± 0.094 mPa·s and 33.1 ± 0.7 mPa·s | – | 20.2 ± 0.6 mPa·s | 20.43 ± 0.055 mPa·s and 19.65 ± 0.09 mPa·s and 21.46 ± 0.12 mPa·s | – | 12.2 ± 0.73 mPa·s
101.3 kPa | 57.2 ± 0.2 mPa·s | 43.5 ± 0.5 mPa·s and 43.6 ± 0.2 mPa·s | 32.73 ± 0.42 mPa·s | 25.1 ± 0.3 mPa·s and 24.8 ± 0.1 mPa·s | – | 19.47 ± 0.23 mPa·s and 19.47 ± 0.14 mPa·s | 15.36 ± 0.17 mPa·s and 15.2 ± 0.1 mPa·s and 15.36 ± 0.11 mPa·s | 12.34 ± 0.14 mPa·s

C1COCCN1
101 kPa
Conditions | viscosity
293.15 K | 2.12 ± 0.02 mPa·s and 2.282 ± 0.03 mPa·s
303.15 K | 1.74 ± 0.02 mPa·s
313.15 K | 1.45 ± 0.02 mPa·s
323.15 K | 1.21 ± 0.01 mPa·s

CCCCn1cc[n+](C)c1.COP(=O)([O-])OC
101 kPa
Conditions | viscosity [mPa·s]
293.15 K | 895.4 ± 36
298.15 K | 608.9 ± 21
303.15 K | 426 ± 13
308.15 K | 305.8 ± 8.1
313.15 K | 224.9 ± 5.1
318.15 K | 168.9 ± 3.3
323.15 K | 129.4 ± 2.2

O=C1CCCC1
viscosity
Conditions | 298.15 K | 303.15 K | 308.15 K | 313.15 K | 318.15 K
100 kPa | – | 0.985 ± 0.1 mPa·s | 0.931 ± 0.1 mPa·s | 0.863 ± 0.1 mPa·s | 0.811 ± 0.1 mPa·s
101 kPa | 1.084 ± 0.014 mPa·s and 1.125 ± 0.0079 mPa·s | – | 0.923 ± 0.012 mPa·s and 0.931 ± 0.046 mPa·s and 0.928 ± 0.035 mPa·s | 0.861 ± 0.012 mPa·s and 0.861 ± 0.011 mPa·s and 0.863 ± 0.044 mPa·s | 0.811 ± 0.041 mPa·s
101.3 kPa | 1.074 ± 0.027 mPa·s | – | – | – | –
101.33 kPa | – | 0.992 ± 0.027 mPa·s | – | – | –

Cc1ccccn1
viscosity
Conditions | 293.15 K | 298.15 K | 298.18 K | 303.15 K | 303.21 K | 308.23 K | 313.15 K | 313.29 K | 318.33 K | 323.15 K
101 kPa | 0.808 ± 0.014 mPa·s | 0.792 ± 0.013 mPa·s | 0.751 ± 0.012 mPa·s | – | 0.704 ± 0.011 mPa·s | 0.663 ± 0.01 mPa·s | 0.628 ± 0.011 mPa·s | 0.623 ± 0.01 mPa·s | 0.588 ± 0.009 mPa·s | –
101.3 kPa | – | – | – | 0.7406 ± 0.017 mPa·s | – | – | 0.6537 ± 0.015 mPa·s and 0.6534 ± 0.015 mPa·s | – | – | 0.5843 ± 0.014 mPa·s

O=C[O-].OCC[NH2+]CCO
100 kPa
Conditions | viscosity [mPa·s]
293.15 K | 470.9 ± 96
303.15 K | 242 ± 49
313.15 K | 135 ± 27
323.15 K | 82.25 ± 17

Cc1ccccn1 + O
viscosity [mPa·s], [1]
Conditions | 298.15 K | 303.15 K | 313.15 K | 323.15 K
101 kPa, x1 = 0.02168 | 1.207 ± 0.02 | – | – | –
101 kPa, x1 = 0.05477 | 1.711 ± 0.028 | – | – | –
101 kPa, x1 = 0.1594 | 2.779 ± 0.045 | – | – | –
101 kPa, x1 = 0.2977 | 3.166 ± 0.051 | – | – | –
101 kPa, x1 = 0.6247 | 1.736 ± 0.028 | – | – | –
101.3 kPa, x1 = 0.1 | – | 1.916 ± 0.061 | 1.467 ± 0.047 | 1.168 ± 0.037
101.3 kPa, x1 = 0.2 | – | 2.506 ± 0.077 | 1.839 ± 0.056 | 1.42 ± 0.044
101.3 kPa, x1 = 0.3 | – | 2.594 ± 0.077 | 1.909 ± 0.057 | 1.465 ± 0.043
101.3 kPa, x1 = 0.3999 | – | 2.364 ± 0.068 | 1.757 ± 0.05 | 1.362 ± 0.039
101.3 kPa, x1 = 0.4997 | – | 1.982 ± 0.055 | 1.515 ± 0.042 | 1.201 ± 0.033
101.3 kPa, x1 = 0.5999 | – | 1.554 ± 0.042 | 1.237 ± 0.033 | 1.008 ± 0.027
101.3 kPa, x1 = 0.7 | – | 1.234 ± 0.032 | 1.016 ± 0.026 | 0.8611 ± 0.022
101.3 kPa, x1 = 0.8146 | – | 0.9988 ± 0.025 | 0.8497 ± 0.021 | 0.7336 ± 0.018
101.3 kPa, x1 = 0.8999 | – | 0.8499 ± 0.021 | 0.7339 ± 0.018 | 0.6501 ± 0.016

O=C[O-].OCC[NH2+]CCO + O
[1], 100 kPa
Conditions | viscosity [mPa·s]
293.15 K, x2 = 0.8484 | 8.19 ± 1.7
303.15 K, x2 = 0.4068 | 75.66 ± 15
303.15 K, x2 = 0.4845 | 65.08 ± 13
303.15 K, x2 = 0.7816 | 11.05 ± 2.2
303.15 K, x2 = 0.8484 | 5.927 ± 1.2
313.15 K, x2 = 0.2013 | 99.28 ± 20
313.15 K, x2 = 0.2622 | 77.5 ± 16
313.15 K, x2 = 0.7816 | 7.98 ± 1.6
323.15 K, x2 = 0.2013 | 61.45 ± 12
323.15 K, x2 = 0.7816 | 6.008 ± 1.2
323.15 K, x2 = 0.9708 | 0.9306 ± 0.19
